Results on one molecule are retold here after patent US20240099951A1, “HAIR GROWTH STIMULANT” (ADJUVANT HOLDINGS CO., LTD., priority 2020, published 2024).

The subject of one experiment is VEGF gene. Nature of the experiment: Human dermal papilla cell VEGF gene expression (real-time PCR). The settings on record: 72 hours; for amount of expression of the VEGF gene as compared with the control group: human dermal papilla cells. It counts as cell-based. Here is the method:
Human dermal papilla cells (Catalog No. CA602t05a; derived from person; Toyobo Co., Ltd. (Japan)) were purchased, testing and evaluation being carried out with maintenance and culture of cells being performed as described in the protocol.
As drugs for testing, drug solutions of the following respective concentrations (final concentrations) were prepared and used. • Comparative Example 5: 30 μM minoxidil • Comparative Example 6: 100 μM adenosine • Working Example 3: 0.3125 μM phytosphingosine • Working Example 4: 1.25 μM phytosphingosine
A 24-well plate was seeded with human dermal papilla cells so as to obtain 6×10^3 thereof per well. Following culture for 1 day within a CO2 incubator (5% CO2; 37° C.), the culture medium was replaced with culture medium which contained the respective drugs for testing. The cell plate was thereafter returned to the CO2 incubator, and this was further cultured for 72 hours. Following culture, total RNA was extracted from the respective wells and was recovered, and this was reverse-transcribed into cDNA. The cDNA that was prepared was used to measure VEGF gene expression in accordance with the real-time PCR method. The GAPDH gene was used as an internal standard, the amount of VEGF gene expression being calculated relative to the negative control group. […]
300 μL of lysis buffer RL was added thereto per well, and the cells were lysed by pipetting. […] Concentration of the recovered RNA was measured using a NanoDrop Lite (Catalog No. ND-LITE; Thermo Fisher Scientific K.K.), and this was stored at −80° C. until the following cDNA creation procedure.
A FastGene scriptase II cDNA synthesis 5X Ready Mix (Catalog No. NE-LS64; Nippon Genetics Co., Ltd. (Japan)) was used to synthesize cDNA. Dilution with RNase Free Water was carried out so as to cause concentration of total RNA produced in a new tube to be 20 ng/mL, 4 μL of FastGene scriptase II cDNA synthesis 5X Ready Mix was added to 16 μL of this sample solution, and this was agitated by vortexing. […]
On the technique in general: In qPCR the cycle at which signal appears reflects the starting amount.

For the next experiment, the system named is BALB/c-nu/nu mice. Nature of the experiment: Evaluation of mitogenic activity (BrdU immunostaining of skin tissue). Format: in vivo. The conditions noted are these: once per day for 7 days. As for the experimental part: Dorsal body hair skin was collected from BALB/c-nu/nu mice (Japan SLC, Inc.; Japan) of age 7 to 8 weeks. Testing and breeding of animals complied with pertinent laws, regulations, ordinances, and guidelines, and was performed with the approval of the Experimental Ethics Review Board of the Institute of Physical and Chemical Research. The following drugs were respectively prepared. • Working Example: 3% phytosphingosine solution • Comparative Example: 60% aqueous ethanol solution A micropipette was used to apply 25 μL of the drug to the left and right dorsal regions of the BALB/c-nu/nu mice. A dryer was thereafter used to cause cool air to be directed at the location where this was applied and rapidly dry the drug. This procedure was carried out in repetitive fashion four times at each the left and right dorsal regions. This drug application procedure was carried out for seven days starting from the day following depilation. 24 hours and 48 hours prior to collection of dorsal body hair skin from BALB/c-nu/nu mice on which the drug had been applied for 7 days, a syringe (Terumo Corporation; Japan) was used to administer 0.5 mL of 10 mg/mL BrdU/physiological saline solution to the abdomen in the region of the hind legs of each mouse. Following euthanization by cervical dislocation of the BALB/c-nu/nu mice on the eighth day at the same time as when administration had been carried out, skin tissue was collected in a manner such as would not cause damage to the hair bulb. The collected skin tissue was immersed for 16 to 24 hours in SuperFix (Toyobo Co., Ltd.; Japan) fixative solution, following which this was washed four times in 1×PBS, placed in fresh 1X PBS, and stored. The necessary portion of the collected skin tissue was cut out therefrom, and a paraffin fluid exchange apparatus (Leica Microsystems GmbH; Germany) was used to fabricate a paraffin block therefrom. […] BrdU counts were measured at three locations of 100 μm^2 for the epidermal layer and the dermal layer, measurement being carried out at three sites of size on the same order for the hair follicle. […]

Regarding `CCCCCCCCCCCCCC[C@@H](O)[C@@H](O)[C@@H](N)CO` [phytosphingosine], the “amount of expression of the VEGF gene as compared with the control group” value with VEGF gene (0.3125 μM phytosphingosine (Working Example 3)) is recorded as “increase”. Besides, the “amount of expression of the VEGF gene as compared with the control group” value in the experiment with VEGF gene (1.25 μM phytosphingosine (Working Example 4)) is given as “increase”. Besides, in the experiment with VEGF gene (increased amount of phytosphingosine added), the “amount of expression of the VEGF gene compared with 30 μM minoxidil (Comparative Example 5) or 100 μM adenosine (Comparative Example 6)” value is given as “greater”. Further, in the experiment on BALB/c-nu/nu mice (3% phytosphingosine solution), the “mitogenic activity (BrdU counts) as compared with the negative control and the positive control” value is reported as “trend toward increased mitogenic activity”; the “mitogenic activity at the basal layer of the epidermis” value is “increase in mitogenic activity”. Moreover, the “mitogenic activity at the hair follicle” value with BALB/c-nu/nu mice (3% phytosphingosine) is “improved”.
